Several values for one entry are separate records, joined by “and”; a condition that tells them apart may be missing. Equal entries are not always repeated.
Assays:
[1] = Metabolite profiling of pooled whole blood, urine and faeces by LC radiochromatograms with AMS; type: in vivo, human
Experimental: For metabolite profiling in whole blood, urine, and faeces, LC-MS/MS followed by AMS was used. The HPLC system included a 1290 Infinity Sampler, Binary Pump, and thermostat (Agilent, UK). The chromatographic method used an aqueous formic acid (MPA)/ammonium acetate:acetonitrile:methanol (MPB) gradient and a Scherzo SS-C18 HPLC column at a temperature of 40 °C with injection volumes of 50–200 microliters. The gradient was set at 90% MAP and 10% MPB. The mass spectrometer was a Q-Exactive system (Thermo Fisher Scientific, UK) and the AMS a single stage NEC SSAMS-250.
Single whole blood, faeces, and urine pools were created across subjects and radioactive regions representing 10% or more of the circulating radioactivity were analysed (e.g. 10% or more of the circulating radioactivity in whole blood or accounting for 10% or more of the administered radioactivity/dose in urine and faeces), To create the pool, an individual subject AUC pool was prepared, and a constant proportion of each subject pool was taken to create one cross-subject pool. The whole blood sample pool included samples from hours 0–144, the urine sample pool included samples from hours 0–48, and the faeces pool from hours 0–192.
Whole blood, faeces, and urine radiochromatograms were generated for each sample by collecting HPLC fractions at intervals of 2 (30 s) or 4 (15 s) per minute over the run time of 110 min.
Radiochromatograms were generated from AMS data using the LAURA V6 software (LabLogic, Sheffield, UK). Regions of interest were quantified and provisionally identified where possible by assignment of observed peaks in each radiochromatogram to either parent zalunfiban or M1 by retention time matching, with corresponding ^12C-reference standards obtained via LC-UV.
Assignment of parent and metabolites was made by matching retention times with synthesised standards at wavelengths of 210, 230, 254, 270, and 300 nm, using liquid chromatography ultraviolet chromatography (LC-UV).
For extraction of ^14C-zalunfiban from whole blood, weighed aliquots in microcentrifuge tubes were processed with vortex mixing and centrifugation. The supernatant was then harvested and the process repeated with the bullet material in the original tube using acetonitrile and then methanol. The combined aliquots then underwent AMS analysis to determine the extraction recovery. Once optimised, the final combined supernatant was dried under N2 gas at 40 °C and reconstituted with 1 mL methanol:water (20:80, v/v), with vortex mixing and sonication. This was followed by analysis by LC. The radioactivity extraction recovery for whole blood (AUC0–144h) was 54.5%,
For extraction of ^14C-zalunfiban from homogenised faeces, weighed aliquots in microcentrifuge tubes were processed with vortex mixing and centrifugation, and then diluted with acetonitrile, followed by additional mixing, centrifugation, and repeat extraction with methanol:water until optimised. Once optimised, the final combined supernatant was dried under N2 gas at 40 °C and reconstituted with methanol, followed by water, followed by vortex mixing, followed by analysis by LC. The radioactivity extraction recovery for faeces (0–192 h) was 100%.
Urine was not subjected to extraction. An aliquot was dispensed into an LC vial prior to analysis.

[2] = system: platelet aggregation; test: In vitro inhibition of ADP-induced platelet aggregation in platelet-rich plasma; type: cell-based, human
Experimental: Ten mL of whole blood was collected from healthy human donors via venipuncture and treated with an anticoagulant (D-phenylalanyl-prolyl-arginyl chloromethyl ketone). From this, platelet-rich plasma (PRP) was prepared by centrifuging whole blood at room temperature at 650 × g for 4 min. PRP was removed and standardised to a uniform platelet concentration of 3.0 × 10^5/μL, using platelet poor plasma as a diluent, where necessary. […] Platelet aggregation was measured using an aggregometer (PAP-8E C/N 106075; Bio/Data Corp, Horsham PA). For M1 a range of concentrations was tested to produce a single fitted curve, and the Levenberg-Marquardt approach was used to calculate IC50 values.

[3] = Water solubility; type: physicochemical
[4] = Lipophilicity; type: physicochemical

Percentage of dose excreted in urine ([1]; 0–48 h): 52.98% and 53.0%
Percentage of total radioactivity in urine ([1]; 0–48 h cross-participant pooled sample): 64.1%
Percentage of dose excreted in faeces ([1]; 0–192 h): 2.87%
Percentage of total radioactivity in faeces ([1]; 0–192 h pooled sample): 20.8%
Percentage of total circulating radioactivity in whole blood ([1]; AUC0–144 cross-pooled whole blood extract): 24.4%
Radiochromatogram peak, faeces extract ([1]; male, human, in vivo): 20.83 %ROI
IC50 ([2]; Homo sapiens, Platelet, 20 min, PRP, 20 min at 22°C, ADP-initiated aggregation): 25.5 ± 3.5 µM
solubility [3]: < 0.01 µg/mL
Lipophilicity compared with zalunfiban [4]: more lipophilic than zalunfiban
Structure (SMILES): Nc1cncc(-c2nn3c(=O)cc(N4CCNCC4)nc3s2)c1 [M1, des-gly-zalunfiban]
Antiplatelet activity relative to zalunfiban ([2]; from IC50 values): < 1%
